Patent EP0086092A2, “Antifungal compositions” (priority 1982, dated 1983)
Several values for one entry are separate records, joined by “and”; a condition that tells them apart may be missing. Equal values may be shown once.

Legend:
Test in all cases: disc diffusion, zone of inhibition on seeded agar plates
Format in all cases: cell-based
Candida albicans B 311 = settings: 16-18 h; for Zone Size Sabouarud Agar / Zone Size YNB agar: Table II, 37°C; for Zone Size YNB agar: lysine; for Zone Size / Zone Size B 311: 28-37°C
Description: The antifungal activity of aculeacin A and the compositions of aculeacin A and fatty acids was measured by disc diffusion.
The effects of a number of fatty acids on the antifungal activity of aculeacin A were determined by utilizing seeded plates of Candida albicans B 311 in yeast nitrogen base (YNB) agar (Difco) with glucose as the carbon source. A composition containing one unit by weight of aculeacin A and 5 units of fatty acid or the sodium salt thereof was spotted on the seeded plates and the size of the zone of inhibition after 16-18 hours incubation at 28-37 °C was measured.
Additional fatty acids were tested to determine , if they increased the intrinsic activity of aculeacin A against C. albicans B 311 utilizing seeded plates of YNB agar (Difco) with lysine as the carbon source and seeded plates of Sabouarud dextrose agar (Difco). Compositions containg one µg of aculeacin A and various amounts of the fatty acid was spotted on the seeded plates and the size of the zone of inhibition after 16-18 hours incubation at 37 °C was measured.
The antifungal effects of compositions containing a single amount of oleic acid as the sodium salt while varying the amounts of aculeacin A were determined by utilizing seeded plates of Candida albicans B 311 in Sabouarud dextrose agar and measuring the zone of inhibition after 16-18 hours incubation at 28-37°C.
(§1) The antifungal effects of compositions containing a single amount of aculeacin A while varying the amounts. of oleic acid as the sodium salt were determined by utilizing seeded plates of Candida albicans strains B 311, BC 759 and B 3153A and measuring the zone of inhibition after 16-18 hours at 28-37°C. This test was also performed with linoleic acid and linolenic acid.
(§2) The seeded plates of Candida albicans strains B 311, BC 759, and B 3153A were prepared by inoculating 50 ml of trypticase soy broth (BBL) with one ml of the preserved frozen culture and incubating the inoculum at 37°C for 7 hours on a rotary shaker. Two milliliters of this culture were used to inoculate one liter of Sabouarud dextrose agar (Difco) at 50°C and 15 milliliters of the resultant medium poured into 150 mm petri-dishes.

Candida albicans B 3153A = settings: Table IV-a; aculeacin A 0.40 µg, oleic acid 0 µg; 16-18 h, 28-37°C
Description: (§3) The antifungal activity of aculeacin A and the compositions of aculeacin A and fatty acids was measured by disc diffusion. Potentiation of antifungal activity was examined by three different methods employing: (1) a single concentration of aculeacin A and a single concentration of known fatty acids; '(2) various concentrations of aculeacin A with a single concentration of individual fatty acids; and (3) various concentrations of fatty acids with a single concentration of aculeacin A. The antifungal activities of aculeacin A and the fatty acids were separately checked as controls.
as §1, §2

Candida albicans BC 759 = settings: Table IV-a; aculeacin A 0.40 µg, oleic acid 0 µg; 16-18 h, 28-37°C
Description: as §3, §1, §2

## CCCCCCCC/C=C/CCCCCCCC(=O)O [Eladic Acid]
Candida albicans B 311; Sabouarud dextrose agar, aculeacin A 0 µg, fatty acid 250 µg alone
  Zone Size Sabouarud Agar: 0 mm
Candida albicans B 311; Sabouarud dextrose agar, aculeacin A 0 µg, fatty acid 500 µg alone
  Zone Size Sabouarud Agar: 0 mm
Candida albicans B 311; Sabouarud dextrose agar, aculeacin A 0 µg, fatty acid 1000 µg alone
  Zone Size Sabouarud Agar: 0 mm
Candida albicans B 311; Sabouarud dextrose agar, composition of aculeacin A 1 µg + fatty acid 250 µg
  Zone Size Sabouarud Agar: 18 mm
Candida albicans B 311; Sabouarud dextrose agar, composition of aculeacin A 1 µg + fatty acid 500 µg
  Zone Size Sabouarud Agar: 15 mm
Candida albicans B 311; Sabouarud dextrose agar, composition of aculeacin A 1 µg + fatty acid 1000 µg
  Zone Size Sabouarud Agar: 13 mm
Candida albicans B 311; YNB agar, aculeacin A 0 µg, fatty acid 250 µg alone
  Zone Size YNB agar: 0 mm
Candida albicans B 311; YNB agar, aculeacin A 0 µg, fatty acid 500 µg alone
  Zone Size YNB agar: 0 mm
Candida albicans B 311; YNB agar, aculeacin A 0 µg, fatty acid 1000 µg alone
  Zone Size YNB agar: 0 mm
Candida albicans B 311; YNB agar, composition of aculeacin A 1 µg + fatty acid 250 µg
  Zone Size YNB agar: 13 mm
Candida albicans B 311; YNB agar, composition of aculeacin A 1 µg + fatty acid 500 µg
  Zone Size YNB agar: 13 mm
Candida albicans B 311; YNB agar, composition of aculeacin A 1 µg + fatty acid 1000 µg
  Zone Size YNB agar: 13 mm

## aculeacin A [reference compound]
Candida albicans B 311; Table I, YNB agar, glucose as carbon source, aculeacin A alone, no fatty acid
  Zone Size: 15 mm
Candida albicans B 311; Sabouarud dextrose agar, aculeacin A 1 µg, no fatty acid
  Zone Size Sabouarud Agar: 13 mm and 15 mm
Candida albicans B 311; YNB agar, aculeacin A 1 µg, no fatty acid
  Zone Size YNB agar: 15 mm and 16 mm
Candida albicans B 311; Table III, Sabouarud dextrose agar, aculeacin A 0.312 µg, oleic acid 0 µg
  Zone Size: trace
Candida albicans B 311; Table III, Sabouarud dextrose agar, aculeacin A 0.625 µg, oleic acid 0 µg
  Zone Size: 10 mm
Candida albicans B 311; Table III, Sabouarud dextrose agar, aculeacin A 1.25 µg, oleic acid 0 µg
  Zone Size: 14-16 mm
Candida albicans B 311; Table III, Sabouarud dextrose agar, aculeacin A 2.5 µg, oleic acid 0 µg
  Zone Size: 19 mm
Candida albicans B 311; Table IV-a, aculeacin A 0.40 µg, oleic acid 0 µg
  Zone Size B 311: 10 mm
Candida albicans B 311; Tables IV-b, IV-c, aculeacin A 0.625 µg, fatty acid 0 µg
  Zone Size B 311: 16 mm
Candida albicans B 3153A
  Zone Size B 3153-A: 12 mm
Candida albicans BC 759
  Zone Size BC 759: 13 mm

## CCCCCCCCCCCC(=O)O [Lauric Acid]
Candida albicans B 311; Table I, YNB agar, glucose as carbon source, composition of 1 unit by weight aculeacin A + 5 units fatty acid
  Zone Size: 22 mm
